# Measurements as given in PMC4259358, “Functional Characterization of Nuclear Localization and Export Signals in Hepatitis C Virus Proteins and Their Role in the Membranous Web” (PLoS ONE, 2014).
# Ends that are not written are not given here.
# Assays:
# JFH-1 HCV = type: cell-based, Hepatitis C virus; conditions: Huh7.5, JFH-1, 4 h at 4°C then 37°C; added at 2 h intervals; % NS5A-positive cells at 72 h PTS; Ezetimibe 30 µM, LMB 18 nM, BMS-986094 10 nM, DGAT 1 inhibitor 10 nM; n = 3
# Experimental: Huh7.5 cells were infected with JFH-1 HCV and maintained at 4°C for 4 hours (h) to synchronize the cells before shifting the temperature to 37°C. Post temperature shift (PTS), infected cells were incubated for various lengths of times prior to the addition of peptides or known inhibitors of HCV at 2 h intervals. […] We deliberately selected the final time point of 72 h PTS to reflect the number of cells infected by a second round of infection. […] This would be reflected by the number of cells infected in the second round as measured at 72 h PTS.
# In order to elucidate the time points in infection when the nuclear transport signals bearing peptides are functional, cells were synchronously infected and treated with the indicated peptides. Each time point (2 h intervals) represents a culture treated with the indicated reagent at the specified time post temperature shift (PTS) and initiation of HCV infection. […] (A) Known inhibitors of HCV production (Ezetimibe (30 µM), LMB (18 nM), BMS-986094 (10 nM) and DGAT 1 inhibitor (10 nM)) and control (Pen peptide 100 µM, DMSO 2%, no treatment, and no infection) were examined. […] Error bars represent ± standard deviation, n = 3.
# For the time of addition experiments, cells were seeded at a density of 6.25×10^4 cells/well in a 96-well plate and infected with 0.1 genomic equivalents of serially passaged JFH-1 virus on ice: cells then were incubated at 4°C for 4 h.
# Briefly, Huh7.5 cells were infected as described above and the test compounds were added to different wells at different time points before the temperature shift (-4 h and -2 h) and every 2 h after the temperature shift (0, 2, 4,…, 48 h). […] The infection levels were calculated by counting infected and total cells numbers in ten random fields for each condition. The non-treated cell infection level was normalized to 100% and all other infections were calculated based on that normalization.
# IPOA5 = biological target: T1, IPOA5 (Homo sapiens, UniProt P52294); test: biochemical; type: binding
# T1 construct: Expression and purification of full length IPOA5, IPO5 were perform according to methods described previously; His tag; made in house; host or cells: Escherichia coli BL21(DE3), pET21 vector
# XPO1 (CRM1) = test: HCV genotype 1 peptide array probed with Huh7.5 cell lysate; type: binding; conditions: array of 15 residue peptides (8 residue overlaps), Huh7.5 lysate, anti-XPO1 antibody; a peptide bound
# Experimental: (§1) However, various HCV proteins contain putative NLSs and NESs, [41], [53]. To identify potential interactions between cellular NTFs and HCV proteins, we designed a peptide array spanning the entire HCV genotype 1 consensus polyprotein sequence. These arrays were incubated with or without cell lysates and then probed using specific antibodies for components of the nuclear transport machinery. We detected binding of IPOA5 (importin α5/kap α1), IPO5 (importin β3/kap β3) and XPO1 (CRM1), but not IPO1 (importin β1/kap β1), to eleven distinct regions within HCV proteins (Fig. 1A, Table 1). All of the antibodies were also tested by western blotting of cell lysates to validate that they detected the corresponding NTF (Fig. 1B).
# (§2) Figure 1 Identification of sequences within the HCV polyprotein that bind nuclear transport factors. (A) HCV genotype 1 peptide arrays consisting of 15 residue peptides (with 8 residue overlaps) spanning the complete HCV polypeptide were incubated with Huh7.5 cells lysates. Bound NTFs were detected using antibodies specific for the indicated NTF. Control peptide arrays were incubated with only NTF-specific antibodies. The different colored regions of the array represent peptides derived from different HCV proteins (see schematic). The last four peptides on the array are additional sequences which some of the HCV strains have in their polyproteins at the C terminus. (B) The same lysate used to probe the peptide arrays was also analyzed by western blotting to detect the indicated NTFs and assess the specificities of the antibodies. (C) Schematic summary of the localization of the NTF binding sites on the indicated HCV proteins.
# (§3) A consensus sequence of HCV Genotype 1 polyprotein was used to design consecutive fifteen amino-acid residue peptides with eight residue overlaps along the complete polyprotein sequence. Peptides were synthesised by Intavis Bioanalytical Instruments (Koeln, Germany) using a CelluSpots peptide array synthesis technology. Peptide arrays were incubated in blocking buffer (TBS containing 0.05% tween 20 (v/v) and 10% skim milk (g/v)) overnight at 4°C on a gentle shaker. Following the blocking, the peptide arrays were washed three times with washing buffer (TBS containing 0.05% tween 20 (v/v)) for 5 min at room temperature on a gentle shaker. The peptide arrays were then incubated for 4 h with cell lysate from two T-75 flasks of fully confluent cells lysed by lysis buffer (10 mM Tris-HCl, pH 7.5, 150 mM NaCl, 2 mM EDTA, 0.1% Triton-X100, 1 mM PMSF, 2 µg/ml aprotinin, 2 µg/ml leupeptin and 0.1 units/µl RNasin) mixed with blocking buffer (ratio 1∶1 v/v) and incubated at room temperature on a gentle shaker. Following this incubation, peptide arrays were rinsed with washing buffer for 30 sec and then washed five times in washing buffer and each wash lasted for 5 min at room temperature on a gentle shaker. Following washing, the peptide arrays were incubated with the primary antibody as indicated in Fig. 1 (1∶100 dilution) for 4 h at room temperature on a gentle shaker. Arrays were then rinsed, washed as described above, and incubated with a complementary HRP conjugated secondary antibody (1∶1000) for 2 h at room temperature on a gentle shaker. The peptide arrays were then rinsed and washed as described above followed by initiation of HRP chemiluminescence with ECL detection reagent (GE Healthcare, RPN2106) and the signal was detected using Fuji RX film (Fujifilm, 47410 08399).
# [1] = test system: IPO5 (importin β3/kap β3); test: as above; type: binding; conditions: array of 15 residue peptides (8 residue overlaps), Huh7.5 lysate, anti-IPO5 antibody; a peptide bound
# Experimental: as §1, §2, §3
# [2] = test system: IPOA5 (importin α5/kap α1); test: as above; type: binding; conditions: array of 15 residue peptides (8 residue overlaps), Huh7.5 lysate, anti-IPOA5 antibody; a peptide bound
# Experimental: as §1, §2, §3
# HEK293T cells = test: Localization of nuclear transport signal-double GFP reporter in HEK293T cells; type: cell-based; parameters: key: +++ for strong; ++ for moderate; + for weak; − for no localization; conditions: double GFP cargo, 24 h post transfection, fluorescence quantified with ImageJ (S6, S7 Figures); NES/SEN on SV40 NLS double GFP
# Description: To determine whether NTF binding sites found in the HCV proteins were functional nuclear transport signals, we constructed reporter proteins each consisting of one of the HCV proteins NTF binding sites followed by two C-terminal, tandemly repeated GFP molecules. The double GFP moieties were required to keep the reporter from entering the nucleus, since a single GFP is small enough to diffuse freely through NPCs, [35]. As controls, constructs containing the reversed amino-acid residue sequence of the potential NLS (SLN) were also examined using the double GFP reporter assay (S5 Figure). These SLN reporters were predicted to not accumulate in the nucleoplasm. In addition, reporters to examine the functionality of the potential XPO1 binding domains were also constructed. These reporters consist of an SV40 NLS and a double GFP molecule followed by one of the various potential NESs at the C-terminus (S5 Figure). In the absence of a functional NES, this reporter will accumulate in the nucleus. However, a functional NES is predicted to export the reporter, leading to increased steady-state levels of the reporter in the cytoplasm.
# Figure 4 Functionality of the putative nuclear transport signals in cells. Cells were transfected by the vectors encoding a nuclear transport reporter consisting of a tandemly repeated double GFP fused to the indicated C-terminal nuclear transport signal (panels A-N). At 24 h following transfection, cells were fixed and stained with Hoechst to visualize the nucleus. Cells were examined using a Zeiss inverted Axiovert 200 M microscope to assess the localization of the GFP (green) and its relationship to the nucleus (blue). A hashed yellow square demarcates the magnified area shown in the right-most image of each panel. Fluorescent intensity was quantified using ImageJ v. […] Analysis of the reverse sequences of each transport signal as well as the mutant SV40 NLS was also performed and the results are shown in S7 Figure.
# Nuclear transport signals-double GFP constructs were transfected into HEK293T cells using lipofectamine 2000. At 24 h post transfection cells were fixed, stained, and visualized for localization of the GFP. For detailed information see S1 Methods.
# Nuclear transport signal-double GFP constructs were transfected into HEK293T cells using lipofectamine 2000 reagent (Invitrogen, 11668019). At 24 h post transfection cells were fixed with 3.76% formaldehyde at room temperature (Sigma, F8775-500ML) for 8 min then permeabilized in 0.2% Triton X-100 (VWR, CA97062-208) for 2 min. Cells were washed three times with X1 PBS and were stained with Hoechst 1:5000 in X1 PBS for 5 min followed by three washes with X1 PBS. The cells were visualized using a Zeiss inverted Axiovert 200M microscope with a 20x/0.8 objective lens to examine localization of the GFP. At least ten random fields of cells were imaged for each combination. Channels were merged using ImageJ software (National Institutes of Health). Photoshop Elements 10 (Adobe) software was used to adjust brightness and contrast levels for individual images and to assemble images into figures.
# IPO5 = biological target: T2, IPO5 (Homo sapiens, UniProt O00410); test: biochemical; type: binding
# T2 construct: Expression and purification of full length IPOA5, IPO5 were perform according to methods described previously; His tag; made in house; host or cells: Escherichia coli BL21(DE3), pET21 vector
# T2 sequence (O00410 whole entry): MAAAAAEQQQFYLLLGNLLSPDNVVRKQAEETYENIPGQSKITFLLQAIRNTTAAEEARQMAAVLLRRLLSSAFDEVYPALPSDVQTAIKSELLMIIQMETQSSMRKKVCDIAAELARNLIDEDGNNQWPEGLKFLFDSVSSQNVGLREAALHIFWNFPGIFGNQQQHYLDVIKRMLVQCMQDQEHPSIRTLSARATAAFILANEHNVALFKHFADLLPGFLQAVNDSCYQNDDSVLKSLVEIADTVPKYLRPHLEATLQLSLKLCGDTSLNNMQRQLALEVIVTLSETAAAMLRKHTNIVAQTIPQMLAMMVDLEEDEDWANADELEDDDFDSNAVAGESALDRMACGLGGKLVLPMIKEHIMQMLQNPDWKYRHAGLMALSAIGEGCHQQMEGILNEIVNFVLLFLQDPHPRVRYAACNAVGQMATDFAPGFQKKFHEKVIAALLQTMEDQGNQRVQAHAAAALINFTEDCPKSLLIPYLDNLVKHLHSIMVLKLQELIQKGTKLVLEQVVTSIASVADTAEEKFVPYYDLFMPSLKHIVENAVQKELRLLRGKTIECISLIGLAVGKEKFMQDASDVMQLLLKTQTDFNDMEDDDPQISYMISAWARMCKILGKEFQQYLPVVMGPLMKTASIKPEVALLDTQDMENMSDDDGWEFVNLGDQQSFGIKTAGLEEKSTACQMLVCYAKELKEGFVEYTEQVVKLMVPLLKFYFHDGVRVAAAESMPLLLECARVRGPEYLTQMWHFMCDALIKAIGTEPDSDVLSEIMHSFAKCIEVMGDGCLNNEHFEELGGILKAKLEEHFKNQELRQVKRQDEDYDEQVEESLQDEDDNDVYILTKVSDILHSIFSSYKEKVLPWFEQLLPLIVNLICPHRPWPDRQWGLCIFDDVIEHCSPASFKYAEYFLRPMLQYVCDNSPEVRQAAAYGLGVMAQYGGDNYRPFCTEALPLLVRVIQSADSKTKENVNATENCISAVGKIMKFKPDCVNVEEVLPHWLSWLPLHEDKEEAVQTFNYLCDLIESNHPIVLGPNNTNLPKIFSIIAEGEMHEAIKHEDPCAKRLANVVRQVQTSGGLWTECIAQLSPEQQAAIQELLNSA
# T1 sequence (P52294 whole entry): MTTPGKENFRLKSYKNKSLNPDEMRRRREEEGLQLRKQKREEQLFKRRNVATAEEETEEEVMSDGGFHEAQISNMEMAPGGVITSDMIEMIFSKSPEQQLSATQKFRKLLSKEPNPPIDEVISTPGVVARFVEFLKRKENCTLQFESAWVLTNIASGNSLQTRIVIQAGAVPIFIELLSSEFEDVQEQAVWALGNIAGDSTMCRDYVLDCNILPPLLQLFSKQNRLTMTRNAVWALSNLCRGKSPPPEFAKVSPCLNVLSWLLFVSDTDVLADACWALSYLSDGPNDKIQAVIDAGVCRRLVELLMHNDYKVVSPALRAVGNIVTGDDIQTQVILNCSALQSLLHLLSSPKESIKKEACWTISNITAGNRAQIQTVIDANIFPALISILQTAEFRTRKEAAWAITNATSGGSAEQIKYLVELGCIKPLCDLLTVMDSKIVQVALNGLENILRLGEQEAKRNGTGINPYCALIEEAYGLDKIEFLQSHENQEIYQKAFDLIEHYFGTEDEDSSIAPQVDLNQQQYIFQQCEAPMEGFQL
compound,measurement,setting,value
COc1nc(N)nc2c1ncn2[C@@H]1O[C@H](COP(=O)(N[C@@H](C)C(=O)OCC(C)(C)C)Oc2cccc3ccccc23)[C@@H](O)[C@@]1(C)O (some centres unmarked) [BMS-986094],time of addition at which the ability to inhibit HCV infection is lost,JFH-1 HCV,10–24 h PTS
CC[C@H](C)[C@H](NC(=O)[C@H](CCCCN)NC(=O)[C@@H](NC(=O)[C@H](CCC(N)=O)NC(=O)[C@H](CCCNC(=N)N)NC(=O)CNC(=O)[C@H](Cc1c[nH]c2ccccc12)NC(=O)[C@@H](NC(=O)[C@@H](NC(=O)[C@@H](NC(=O)[C@H](CCCCN)NC(=O)[C@H](CCCCN)NC(=O)[C@H](CCC(=O)O)NC(=O)[C@H](CCSC)NC(=O)[C@@H]1CCCN1C(=O)[C@H](CO)NC(=O)[C@H](Cc1ccccc1)NC(=O)[C@@H](NC(=O)[C@@H](NC(=O)[C@@H]1CCCN1)[C@@H](C)CC)[C@@H](C)CC)C(C)C)[C@@H](C)CC)C(C)C)[C@@H](C)CC)C(=O)N[C@@H](Cc1c[nH]c2ccccc12)C(=O)N[C@@H](Cc1ccccc1)C(=O)N[C@@H](CCC(N)=O)C(=O)N[C@@H](CC(N)=O)C(=O)N[C@@H](CCCNC(=N)N)C(=O)N[C@@H](CCCNC(=N)N)C(=O)N[C@@H](CCSC)C(=O)N[C@@H](CCCCN)C(=O)N[C@@H](Cc1c[nH]c2ccccc12)C(=O)N[C@@H](CCCCN)C(=O)N[C@@H](CCCCN)C(=O)O [NS2 NLS],Kd,IPOA5,79.3 ± 3.89 nM
"CC[C@H](C)[C@H](NC(=O)[C@H](CCCCN)NC(=O)[C@@H](NC(=O)[C@H](CCC(N)=O)NC(=O)[C@H](CCCNC(=N)N)NC(=O)[C@@H](NC(=O)[C@H](CCCCN)NC(=O)[C@H](CCCNC(=N)N)NC(=O)[C@H](CCCCN)NC(=O)[C@H](CCCCN)NC(=O)[C@H](CCCCN)NC(=O)[C@@H]1CCCN1)C(C)C)[C@@H](C)CC)C(=O)N[C@@H](Cc1c[nH]c2ccccc12)C(=O)N[C@@H](Cc1ccccc1)C(=O)N[C@@H](CCC(N)=O)C(=O)N[C@@H](CC(N)=O)C(=O)N[C@@H](CCCNC(=N)N)C(=O)N[C@@H](CCCNC(=N)N)C(=O)N[C@@H](CCSC)C(=O)N[C@@H](CCCCN)C(=O)N[C@@H](Cc1c[nH]c2ccccc12)C(=O)N[C@@H](CCCCN)C(=O)N[C@@H](CCCCN)C(=O)O [SV40 NLS, reference compound]",Kd,IPOA5,27.1 ± 4.23 nM
"FLLALLSCITVPVSA [A23, HCV genotype 1 array peptide, core residues 177-191]",Binding to XPO1,XPO1 (CRM1),A23: 177-[…]-191
"GVYLLPRRGPRLGVR [A5, HCV genotype 1 array peptide, core residues 33-47]",Binds to IPO5,[1],A5: 33-[…]-47
same,Binding to IPOA5,[2],A5: 33-[…]-47
GWVIVKKEMPSFIIPRQIKIWFQNRRMKWKK [NS2 SLN],Localization Cytoplasmic,HEK293T cells,+++
same,Localization Nuclear,HEK293T cells,−
"IPKDRRSTGKAWGKP [A9, HCV genotype 1 array peptide, core residues 65-79]",Binds to IPO5,[1],A9: 65-[…]-79
same,Binding to IPOA5,[2],A9: 65-[…]-79
KAPTPPPRRRRTVGL [M3],Binds to IPO5,[1],M3: 2321-[…]-2335
"KVIDTLTCGFADLMG [A16, HCV genotype 1 array peptide, core residues 121-135]",Binding to XPO1,XPO1 (CRM1),A16: 121-[…]-135
"LPGFPFSIFLLALLS [A22, HCV genotype 1 array peptide, core residues 169-183]",Binding to XPO1,XPO1 (CRM1),A22: 169-[…]-183
"MSTNPKPQRKTKRNT [A1, HCV genotype 1 array peptide, core residues 1-15]",Binds to IPO5,[1],A1: 1-[…]-15
same,Binding to IPOA5,[2],A1: 1-[…]-15
PARRRGDKRGALLSP [F24],Binds to IPO5,[1],F24: 1145-[…]-1159
PARRRGDKRRQIKIWFQNRRMKWKK [NS3 NLS 1],Kd,IPO5,33.8 ± 5.6 nM
PIIFSPMEKKVIVWG [F3],Binding to IPOA5,[2],F3: 977-[…]-991
PPPRRRRTVRQIKIWFQNRRMKWKK [NS5A NLS],Kd,IPOA5,7630 ± 259 nM
same,Kd,IPO5,32.3 ± 4.99 nM
PRHRSRNVGKRQIKIWFQNRRMKWKK [Core NLS 4],Kd,IPOA5,518 ± 28.6 nM
same,Kd,IPO5,105 ± 31.1 nM
"PSWGPTDPRHRSRNV [A14, HCV genotype 1 array peptide, core residues 105-119]",Binds to IPO5,[1],A14: 105-[…]-119
"QPRGRRQPIPKDRRS [A8, HCV genotype 1 array peptide, core residues 57-71]",Binds to IPO5,[1],A8: 57-[…]-71
same,Binding to IPOA5,[2],A8: 57-[…]-71
"RHRSRNVGKVIDTLT [A15, HCV genotype 1 array peptide, core residues 113-127]",Binds to IPO5,[1],A15: 113-[…]-127
"RKTKRNTNRRPEDVK [A2, HCV genotype 1 array peptide, core residues 9-23]",Binds to IPO5,[1],A2: 9-[…]-23
same,Binding to IPOA5,[2],A2: 9-[…]-23
RRRTVGLSESTISEA [M4],Binds to IPO5,[1],M4: 2329-[…]-2343
RSQRRGRTTGRGRRQIKIWFQNRRMKWKK [NS3 NLS 2],Kd,IPOA5,36.6 ± 7.13 nM
same,Kd,IPO5,35.8 ± 7.26 nM
SQRRGRTGRGRQGTY [H19],Binds to IPO5,[1],H19: 1489-[…]-1503
same,Binding to IPOA5,[2],H19: 1489-[…]-1503
TIFYQLWWILRALFLKYHPSLTLLILRQIKIWFQNRRMKWKK [NS2 SEN],Localization Cytoplasmic,HEK293T cells,−
same,Localization Nuclear,HEK293T cells,+++
TLLGQCLWWLCYLLT [E10],Binding to XPO1,XPO1 (CRM1),E10: 841-[…]-855
VPQDAVSRSQRRGRT [H18],Binds to IPO5,[1],H18: 1481-[…]-1495
same,Binding to IPOA5,[2],H18: 1481-[…]-1495
VTRNADVIPARRRGD [F23],Binds to IPO5,[1],F23: 1137-[…]-1151
VTRRRRPPPRQIKIWFQNRRMKWKK [NS5A SLN],Localization Cytoplasmic,HEK293T cells,+++
same,Localization Nuclear,HEK293T cells,−
